The test system of assay [1] is NF-κB. Kind of assay: EMSA of NF-κB translocation / DNA binding in A549 cells. The following applies: for NF-κB Stimulation / level of NF-κB translocation, fragments versus flagellin: A549 cells; for NF-κB Stimulation: 1 μg/ml, 45 min, EMSA of whole cell extracts; for level of NF-κB translocation, fragments versus flagellin / inducing NF-κB translocation: EMSA; for inducing NF-κB translocation: nuclear extracts of treated A549 lung cancer cells. In general terms: A gel shift assay detects complexes by their altered migration in electrophoresis.

The subject of assay [2] is NF-κB. In words: EMSA of NF-κB binding activity in HT29 human colon cancer cells. It counts as cell-based. The following applies: fragments 1 mg/ml, 15 min. The procedure: We further minimized the AA′ flagellin fragment by producing additional fragments through stepwise removal of peptide fragments from its N-terminal half (Table 2). […] NF-κB binding activity in HT29 cells was stimulated with TNFa (10 ng/ml), or flagellin fragments (1 mg/ml) for 15 min.

Assay [3] deals with mice treated with total body gamma radiation. In words: Mouse survival after total body gamma irradiation (radioprotection). It counts as in vivo. The following applies: s.c. 5.0 μg/mouse (0.2 mg/kg). The procedure:
Whole body irradiation of mice with 15 Gy gamma radiation caused death within 8 days from GI syndrome providing a conventional model of radiation induced damage of GI tract. To test whether flagellin was capable of protecting GI epithelium from IR, we tested the effect of i.v.-injected flagellin on the dynamics of mouse lethality after 15 Gy of radiation. […] Irradiation was done 4 hours post treatment. As expected, control irradiated mice (that received PBS i.v.) died between 5 and 8 days post-treatment. […] Intravenous, intraperitoneal and subcutaneous delivery of 0.2 mg/kg of flagellin followed by 13 Gy irradiation afforded similar degree of protection, leading to 85-90% 30-day survival of mice (data not shown). While not being bound by theory, flagellin may be a radioprotectant due to its activation of NF-κB, which presumably acts as an inhibitor of apoptotic death.
The experiments were done similarly to the above-described ones (FIGS. 14 and 15), however, instead of 15Gy, mice received 10Gy, the dose that caused 100% killing in control group by day 13 (FIG. 6).
In order to further estimate the dependence of radioprotective activity of flagellin on the time of treatment, mice were injected at several time points relative to the moment of gamma-irradiation. Experiments were performed essentially as explained above, using intraperitoneal injection of 5 μg/mouse (0.2 mg/kg) of full-length flagellin or, for control mice, 5 μg/mouse (0.2 mg/kg) of bacterial RNA polymerase. The experiments were performed using the NIH-Swiss mouse strain. […] Only −1 h graph is shown for clarity, however, both timepoints (−1 and −2 h) provide similar degree and dynamics of survival.
We next obtained an estimate of radiation dose-dependent protection for flagellin. As shown above (FIG. 7), treatment with flagellin was sufficient for 100% protection against 10 Gy gamma-irradiation (this dose causes death from hematopoietic syndrome) and 90% 30-day survival at 13 Gy (both hematopoietic and GI syndromes). Experiments were performed as described above, using flagellin 5 μg/mouse (0.2 mg/kg), intraperitoneally injected 1 h before irradiation.
As shown above, full-length flagellin provides protection from both hematopoietic and gastrointestinal syndromes. The radioprotective potential of flagellin fragments was similarly tested after gamma-irradiation with 11 Gy (dose that induces hematopoietic syndrome-associated mortality in mice) or 14 Gy (dose that causes death from GI syndrome). Mice (10 animals per group) were injected subcutaneously with 5.0 μg/mouse (0.2 mg/kg) of flagellin or its fragments, AA′ or BB′, and gamma-irradiated 1 hour later.
In order to explore the limits of radioprotection provided by the AA′ fragment, we irradiated mice with 17 Gy and 20 Gy single doses of total body gamma-radiation.
We tested the ability of AA′ to protect mice that were exposed to it. A group of 20 NIH-Swiss mice were subcutaneously injected with 5 μg/mouse (0.2 mg/kg) of AA′. A second injection of a equal dose of AA′ was administered after 21 (10 mice) and 28 days (another 10 mice), with the time elapsed being sufficient for formation of antibodies. The second injection of AA′ was followed by 13 Gy of whole-body gamma irradiation (1 h post-injection).
Repetitive irradiation within a short period of time may be common, for example, in space radiation events and in clinical radiotherapy regimens. We tested the ability of the AA′ flagellin fragment to protect mice from sub-lethal (4 treatments of 3 Gy) and 100% lethal (4 treatments of 4 Gy) regimens of fractionated gamma-irradiation. Fragment AA′ or saline buffer was given to NIH-Swiss female mice before every irradiation (once a day for 4 days). AA′ was administered as described above for single-dose irradiation (5 μg/mouse, given subcutaneously 1 h before irradiation). […]
We have extensively confirmed that AA′ protects NIH-Swiss and ICR mice from radiation. […]

The results in this text go back to patent publication US8580321B2, “Method for reducing the effects of chemotherapy using flagellin related polypeptides” (priority 2003, dated 2013).

For the molecule “AA′n54-170: (54-170)-Linker-(402-505), SEQ ID NO: 32”, the “NF-κB Stimulation” value in the assay with NF-κB [1] was “Yes”. In the assay with NF-κB [2], the “induction of NF-κB translocation” value was “induce NF-κB translocation” and the “level of NF-κB translocation relative to flagellin” value is listed as “comparable to that of flagellin”.
Take “AA′n1-70: flagellin variant N-terminal 1-70, C-terminal 402-505, SEQ ID NO: 54”: the “NF-κB Stimulation” value in the assay on NF-κB [1] is listed as “No”.
Same read-out and setting: in the case of “AA′n1-129: flagellin variant N-terminal 1-129, C-terminal 402-505, SEQ ID NO: 42” it was “Yes”.
With “CA′: flagellin fragment (56-100)-Linker-(402-505), SEQ ID NO: 16”, in the assay on NF-κB [1], the “NF-κB Stimulation” value was “No”.
Same read-out and setting: in the case of “GST-A′: GST-Linker-(402-505), SEQ ID NO: 26” it was “No”.
Regarding “BA′: flagellin fragment (56-177)-Linker-(402-505), SEQ ID NO: 12”, in the assay on NF-κB [1], the “NF-κB Stimulation” value is “Yes”; the “level of NF-κB translocation, fragments versus flagellin” value is “comparable”; the “inducing NF-κB translocation” value is “capable of inducing NF-κB translocation”.
Regarding “AA′n1-163: (1-163)-Linker-(402-505), SEQ ID NO: 34”, in the assay with NF-κB [1], the “NF-κB Stimulation” value is given as “Yes”. Further, in the assay on NF-κB [2], the “induction of NF-κB translocation” value was “induce NF-κB translocation” and the “level of NF-κB translocation relative to flagellin” value is given as “comparable to that of flagellin”.
On to “AA′n54-129: flagellin variant N-terminal 54-129, C-terminal 402-505, SEQ ID NO: 44”, for which, in the assay on NF-κB [1], the “NF-κB Stimulation” value is “Yes”.
“AA′n54-163: (54-163)-Linker-(402-505), SEQ ID NO: 36”: the “NF-κB Stimulation” value in the assay with NF-κB [1] was “Yes”. Also, in the assay with NF-κB [2], the “induction of NF-κB translocation” value is “induce NF-κB translocation”.

B1: AB′n1-170: flagellin variant N-terminal 1-170, C-terminal 402-450, SEQ ID NO: 38 (protein)
chain: MRGSHHHHHHGMASMTGGQQMGRDLYDDDDKDPMAQVINTNSLSLLTQNNLNKSQSSLSSAIERLSSGLRINSAKDDAAGQAIANRFTSNIKGLTQASRNANDGISIAQTTEGALNEINNNLQRVRELSVQATNGTNSDSDLKSIQDEIQQRLEEIDRVSNQTQFNGVKVLSQDNQMKIQVGANDGETITIDLQKIDVKSLGLIPGISGGGGGILDSMGTLINEDAAAAKKSTANPLASIDSALSKVDAVRSSLGAIQNRFDSAITNL
modifications: Salmonella dublin
For B1, the “NF-κB Stimulation” value with NF-κB [1] was “Yes”.

B2: AB′n1-70: flagellin variant N-terminal 1-70, C-terminal 402-450, SEQ ID NO: 56 (protein)
chain: MRGSHHHHHHGMASMTGGQQMGRDLYDDDDKDPMAQVINTNSLSLLTQNNLNKSQSSLSSAIERLSSGLRINSAKDDAAGQAIANRFTSNIKGLTQASRNANDIPGISGGGGGILDSMGTLINEDAAAAKKSTANPLASIDSALSKVDAVRSSLGAIQNRFDSAITNL
modifications: Salmonella dublin
B2: the “NF-κB Stimulation” value with NF-κB [1] is “No”.

B3: C: flagellin N-terminus (56-100), SEQ ID NO: 24 (protein)
chain: MRGSHHHHHHGMASMTGGQQMGRDLYDDDDKDPFTSNIKGLTQASRNANDGISIAQTTEGALNEINNNLQRVRELSVQATSPG
modifications: Salmonella dublin
As for B3, the “NF-κB Stimulation” value in the assay on NF-κB [1] was “No”.

B4: B: flagellin N-terminus (56-177), SEQ ID NO: 22 (protein)
chain: MRGSHHHHHHGMASMTGGQQMGRDLYDDDDKDPFTSNIKGLTQASRNANDGISIAQTTEGALNEINNNLQRVRELSVQATNGTNSDSDLKSIQDEIQQRLEEIDRVSNQTQFNGVKVLSQDNQMKIQVGANDGETITIDLQKIDVKSLGLDGFNVNSPG
modifications: Salmonella dublin
As to B4, the “NF-κB Stimulation” value in the assay with NF-κB [1] is “No”.

B5: AB′n1-163: flagellin variant N-terminal 1-163, C-terminal 402-450, SEQ ID NO: 40 (protein)
chain: MRGSHHHHHHGMASMTGGQQMGRDLYDDDDKDPMAQVINTNSLSLLTQNNLNKSQSSLSSAIERLSSGLRINSAKDDAAGQAIANRFTSNIKGLTQASRNANDGISIAQTTEGALNEINNNLQRVRELSVQATNGTNSDSDLKSIQDEIQQRLEEIDRVSNQTQFNGVKVLSQDNQMKIQVGANDGETITIDLQKIIPGISGGGGGILDSMGTLINEDAAAAKKSTANPLASIDSALSKVDAVRSSLGAIQNRFDSAITNL
modifications: Salmonella dublin
Take B5: the “NF-κB Stimulation” value with NF-κB [1] is on record as “Yes”.

B6: CB′: flagellin fragment (56-100)-Linker-(402-450), SEQ ID NO: 18 (protein)
chain: MRGSHHHHHHGMASMTGGQQMGRDLYDDDDKDPFTSNIKGLTQASRNANDGISIAQTTEGALNEINNNLQRVRELSVQATSPGISGGGGGILDSMGTLINEDAAAAKKSTANPLASIDSALSKVDAVRSSLGAIQNRFDSAITNL
modifications: Salmonella dublin
Turning to B6, the “NF-κB Stimulation” value in the assay on NF-κB [1] is reported as “No”.

B7: AB′: flagellin fragment (1-177)-Linker-(402-450), SEQ ID NO: 10 (protein)
chain: MRGSHHHHHHGMASMTGGQQMGRDLYDDDDKDPMAQVINTNSLSLLTQNNLNKSQSSLSSAIERLSSGLRINSAKDDAAGQAIANRFTSNIKGLTQASRNANDGISIAQTTEGALNEINNNLQRVRELSVQATNGTNSDSDLKSIQDEIQQRLEEIDRVSNQTQFNGVKVLSQDNQMKIQVGANDGETITIDLQKIDVKSLGLDGFNVNSPGISGGGGGILDSMGTLINEDAAAAKKSTANPLASIDSALSKVDAVRSSLGAIQNRFDSAITNL
modifications: Salmonella dublin
Regarding B7, in the assay on NF-κB [1], the “NF-κB Stimulation” value is on record as “Yes”; the “level of NF-κB translocation, fragments versus flagellin” value was “comparable”; the “inducing NF-κB translocation” value is reported as “capable of inducing NF-κB translocation”.

B8: A: flagellin N-terminus (1-177), SEQ ID NO: 20 (protein)
chain: MRGSHHHHHHGMASMTGGQQMGRDLYDDDDKDPMAQVINTNSLSLLTQNNLNKSQSSLSSAIERLSSGLRINSAKDDAAGQAIANRFTSNIKGLTQASRNANDGISIAQTTEGALNEINNNLQRVRELSVQATNGTNSDSDLKSIQDEIQQRLEEIDRVSNQTQFNGVKVLSQDNQMKIQVGANDGETITIDLQKIDVKSLGLDGFNVNSPG
modifications: Salmonella dublin
In the case of B8, in the assay with NF-κB [1], the “NF-κB Stimulation” value is “No”.

B9: BB′: flagellin fragment (56-177)-Linker-(402-450), SEQ ID NO: 14 (protein)
chain: MRGSHHHHHHGMASMTGGQQMGRDLYDDDDKDPFTSNIKGLTQASRNANDGISIAQTTEGALNEINNNLQRVRELSVQATNGTNSDSDLKSIQDEIQQRLEEIDRVSNQTQFNGVKVLSQDNQMKIQVGANDGETITIDLQKIDVKSLGLDGFNVNSPGISGGGGGILDSMGTLINEDAAAAKKSTANPLASIDSALSKVDAVRSSLGAIQNRFDSAITNL
modifications: Salmonella dublin
For the molecule B9, the “NF-κB Stimulation” value with NF-κB [1] is listed as “No”. In assay [3] (1 hour before 11 Gy), the “30-day survival, 11 Gy” value was 0%. Moreover, the “30-day survival, 14 Gy” value in assay [3] (1 hour before 14 Gy) is given as 0%.
